Reference: patent US10752588B2 (The Broad Institute, Inc., priority 2014, dated 2020)

Assays:
[1] = molecular target: T1, human D2R/β-arrestin (Homo sapiens (Human), UniProt P14416); test: β-Arrestin agonist assay (PathHunter); assay type: cell-based; conditions: CHO-K1 cell line expressing human D2R/β-arrestin
Method in brief: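 Readout follows addition of Buffer:Emerald II:Galactor-Star reagent (19:5:1) to agonist-treated plates, measured as luminescence or fluorescence.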

[2] = molecular target: T1, human D2R/β-arrestin; test: cell-based; conditions: cAMP Antagonist
[3] = molecular target: T1, human D2R/β-arrestin; test: Gi/cAMP agonist assay (Lance Ultra cAMP, Forskolin); assay type: cell-based; conditions: CHO-K1 cell line expressing human D2R/β-arrestin
Method in brief: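 Read-out was Lance Ultra competitive TR-FRET (Eu-cAMP tracer plus ULight-anti-cAMP) following forskolin-induced cAMP production. Before forskolin stimulation, compounds were pin-transferred onto the seeded cells for 10 min at 37 °C.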

[4] = molecular target: T1, human D2R/β-arrestin; test: cell-based; conditions: β-arrestin Antagonist
Method: The detection reagents are then added, and the read-out is detected.
Cells were prepared for assays by growing cultures for up to 2 weeks (from about 6-20 passages). A vial of frozen cells was thawed in a water bath held at 37° C. The cells were then transferred into a 50 ml tube with 10 ml growth media. The vial was rinsed with growth media and the contents transferred to the 50 ml tube. The 50 ml tube was centrifuged at 1200 rpm for 5 minutes at room temperature. […] When the cells reached about 90% confluence (approximately 3 days between passages), the cells were passaged and used for either the agonist or antagonist assays as described below.
The cells were prepared for β-arrestin assays as described above. The assays were performed using a PathHunter® β-Arrestin Detecting Kit (DiscoveRX). The cells were grown on 225 mm dishes, then washed once with 1×PBS (Cellgro), followed by digestion with 2.5 ml 1× Detachment reagent (DRX 92-0009) for approximately 2 minutes.

[5] = CHO-K1 cell line expressing human D2R/β-arrestin, quinpirole used as agonist

T1 sequence (P14416 whole entry): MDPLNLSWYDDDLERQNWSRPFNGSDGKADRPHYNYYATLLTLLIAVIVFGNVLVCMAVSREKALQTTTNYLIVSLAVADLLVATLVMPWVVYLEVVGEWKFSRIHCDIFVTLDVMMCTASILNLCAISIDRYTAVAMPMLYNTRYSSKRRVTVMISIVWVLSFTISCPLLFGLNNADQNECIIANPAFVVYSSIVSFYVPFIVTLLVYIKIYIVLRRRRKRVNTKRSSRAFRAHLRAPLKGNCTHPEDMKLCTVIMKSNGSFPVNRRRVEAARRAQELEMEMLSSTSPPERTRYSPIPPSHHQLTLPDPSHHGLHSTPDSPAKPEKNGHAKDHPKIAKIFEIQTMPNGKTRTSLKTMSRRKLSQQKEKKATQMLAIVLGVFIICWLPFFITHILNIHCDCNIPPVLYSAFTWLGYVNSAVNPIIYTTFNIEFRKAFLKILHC

EC50 [1]	IC50 [2, 5]	EC50 [3]	IC50 [4, 5]	SMILES	IC50 [2]	IC50 [4]
> 30000 nM	> 30000 nM	< 100 nM	1000 to 10000 nM	O=C(NC1CCN(CCOc2ccccc2)CC1)C(c1ccc(Cl)cc1)c1ccccn1 (stereo not drawn) [Compound 126, 2-(4-chlorophenyl)-N-(1-(2-phenoxyethyl)piperidin-4-yl)-2-(pyridin-2-yl)acetamide]	–	–
< 100 nM	> 30000 nM	< 100 nM	100 to 1000 nM	CC(C)N(CC1CCN(CCOc2ccccc2F)CC1)C(c1ccc(Cl)cc1)c1ccccn1 (single isomer, unassigned) [Compound 133b, N-((4-chlorophenyl)(pyridin-2-yl)methyl)-N-((1-(2-(2-fluorophenoxy)ethyl)piperidin-4-yl)methyl)propan-2-amine]	–	–
> 30000 nM	10000 to 30000 nM	> 30000 nM	1000 to 10000 nM	COc1ccc(C(NC(=O)C2CCN(CCOc3ccccc3)CC2)c2ccc(Cl)cc2)cc1 (stereo not drawn) [Compound 44]	–	–
100 to 1000 nM	> 30000 nM	< 100 nM	100 to 1000 nM	O=C(NC(c1ccc2c(c1)OC(F)(F)O2)c1ccccn1)C1CCN(CCOc2ccccc2F)CC1 (stereo not drawn) [Compound 94, N-((2,2-difluorobenzo[d][1,3]dioxol-5-yl)(pyridin-2-yl)methyl)-1-(2-(2-fluorophenoxy)ethyl)piperidine-4-carboxamide]	–	–
> 30000 nM	< 100 nM	> 30000 nM	< 100 nM	CN(CC1CCN(CCOc2ccccc2F)CC1)C(c1ccc(Cl)cc1)c1ccccn1 (single isomer, unassigned) [Compound 72b, 1-(4-chlorophenyl)-N-((1-(2-(2-fluorophenoxy)ethyl)piperidin-4-yl)methyl)-N-methyl-1-(pyridin-2-yl)methanamine]	–	–
> 30000 nM	100 to 1000 nM	> 30000 nM	100 to 1000 nM	CC(C1CCN(CCOc2ccccc2)CC1)N(C)C(c1ccc(Cl)cc1)c1ccccn1 (single isomer, unassigned) [Compound 97d, N-((4-chlorophenyl)(pyridin-2-yl)methyl)-N-methyl-1-(1-(2-phenoxyethyl)piperidin-4-yl)ethan-1-amine]	–	–
> 30000 nM	100 to 1000 nM	100 to 1000 nM	100 to 1000 nM	c1ccc(OCCN2CCC(CNC(c3ccc4c(c3)OCO4)c3ccccn3)CC2)cc1 (stereo not drawn) [Compound 102, 1-(benzo[d][1,3]dioxol-5-yl)-N-((1-(2-phenoxyethyl)piperidin-4-yl)methyl)-1-(pyridin-2-yl)methanamine]	–	–
> 30000 nM	> 30000 nM	100 to 1000 nM	1000 to 10000 nM	O=C(NC(c1ccc(Cl)cc1)c1ccc(F)cn1)C1CCN(CCOc2ccccc2)CC1 (stereo not drawn) [Compound 116, N-((4-chlorophenyl)(5-fluoropyridin-2-yl)methyl)-1-(2-phenoxyethyl)piperidine-4-carboxamide]	–	–
> 30000 nM	> 30000 nM	1000 to 10000 nM	1000 to 10000 nM	O=C(NC(c1ccccn1)c1ccccc1Cl)C1CCN(CCOc2ccccc2)CC1 (stereo not drawn) [Compound 24]	–	–
> 30000 nM	> 30000 nM	100 to 1000 nM	1000 to 10000 nM	O=C(NC(c1cccnc1)c1ccccn1)C1CCN(CCOc2ccccc2)CC1 (stereo not drawn) [Compound 29, 1-(2-phenoxyethyl)-N-(pyridin-2-yl(pyridin-3-yl)methyl)piperidine-4-carboxamide]	–	–
100 to 1000 nM	> 30000 nM	< 100 nM	100 to 1000 nM	CN(CC1CCN(CCOc2ccccc2F)CC1)C(c1ccc2c(c1)OCO2)c1ccccn1 (single isomer, unassigned) [Compound 138a, 1-(benzo[d][1,3]dioxol-5-yl)-N-((1-(2-(2-fluorophenoxy)ethyl)piperidin-4-yl)methyl)-N-methyl-1-(pyridin-2-yl)methanamine]	–	–
< 100 nM	> 30000 nM	< 100 nM	100 to 1000 nM	CC1(C(=O)NC(c2ccc(F)cc2)c2ccccn2)CCN(CCOc2ccccc2F)CC1 (stereo not drawn) [Compound 71, 1-(2-(2-fluorophenoxy)ethyl)-N-((4-fluorophenyl)(pyridin-2-yl)methyl)-4-methylpiperidine-4-carboxamide]	–	–
100 to 1000 nM	> 30000 nM	< 100 nM	1000 to 10000 nM	O=C(NC(c1ccc2c(c1)OC(F)(F)O2)c1ccccn1)C1CCN(CCOc2ccc(F)cc2F)CC1 (stereo not drawn) [Compound 130, N-((2,2-difluorobenzo[d][1,3]dioxol-5-yl)(pyridin-2-yl)methyl)-1-(2-(2,4-difluorophenoxy)ethyl)piperidine-4-carboxamide]	–	–
> 30000 nM	10000 to 30000 nM	> 30000 nM	10000 to 30000 nM	CC(C)(COc1ccccc1)N1CCC(C(=O)NC(c2ccc(F)cc2)c2ccccn2)CC1 (stereo not drawn) [Compound 58]	–	–
> 30000 nM	100 to 1000 nM	< 100 nM	100 to 1000 nM	CN(CC1CCN(CCOc2ccccc2)CC1)C(c1ccc(F)cc1)c1ccccn1 (stereo not drawn) [Compound 74, 1-(4-fluorophenyl)-N-methyl-N-((1-(2-phenoxyethyl)piperidin-4-yl)methyl)-1-(pyridin-2-yl)methanamine]	–	–
> 30000 nM	1000 to 10000 nM	100 to 1000 nM	1000 to 10000 nM	COc1cccc(C(NCC2CCN(CCOc3ccccc3)CC2)c2ccccn2)c1 (stereo not drawn) [Compound 80, 1-(3-methoxyphenyl)-N-((1-(2-phenoxyethyl)piperidin-4-yl)methyl)-1-(pyridin-2-yl)methanamine]	–	–
> 30000 nM	> 30000 nM	100 to 1000 nM	1000 to 10000 nM	O=C(NC(c1ccc(Cl)cc1)c1ccccn1)C1CCN(CCOc2ccccc2)CC1 (single isomer, unassigned) [Compound 63a, N-((4-chlorophenyl)(pyridin-2-yl)methyl)-1-(2-phenoxyethyl)piperidine-4-carboxamide]	–	–
> 30000 nM	< 100 nM	> 30000 nM	100 to 1000 nM	CC1(CNC(c2ccc(F)cc2)c2ccccn2)CCN(CCOc2ccccc2C(F)(F)F)CC1 (stereo not drawn) [Compound 101, 1-(4-fluorophenyl)-N-((4-methyl-1-(2-(2-(trifluoromethyl)phenoxy)ethyl)piperidin-4-yl)methyl)-1-(pyridin-2-yl)methanamine]	–	–
> 30000 nM	100 to 1000 nM	1000 to 10000 nM	1000 to 10000 nM	Fc1ccccc1OCCN1CCC(CNC(c2ccc3c(c2)OCO3)c2ccccn2)CC1 (stereo not drawn) [Compound 139, 1-(benzo[d][1,3]dioxol-5-yl)-N-((1-(2-(2-fluorophenoxy)ethyl)piperidin-4-yl)methyl)-1-(pyridin-2-yl)methanamine]	–	–
> 30000 nM	100 to 1000 nM	> 30000 nM	1000 to 10000 nM	COc1cccc(C(NC(=O)C2CCN(CCOc3ccc(F)cc3F)CC2)c2ccccn2)c1 (single isomer, unassigned) [Compound 145b, 1-(2-(2,4-difluorophenoxy)ethyl)-N-((3-methoxyphenyl)(pyridin-2-yl)methyl)piperidine-4-carboxamide]	–	–
> 30000 nM	> 30000 nM	1000 to 10000 nM	> 30000 nM	COc1cccc(C(NC(=O)C2CCN(CCOc3ccccc3)CC2)c2cocn2)c1 (stereo not drawn) [Compound 129, N-((3-methoxyphenyl)(oxazol-4-yl)methyl)-1-(2-phenoxyethyl)piperidine-4-carboxamide]	–	–
> 30000 nM	1000 to 10000 nM	10000 to 30000 nM	1000 to 10000 nM	O=C(NC(c1ccc(Cl)cc1)c1ccc(F)cn1)C1CCN(CCOc2ccccc2F)CC1 (single isomer, unassigned) [Compound 92b, N-((4-chlorophenyl)(5-fluoropyridin-2-yl)methyl)-1-(2-(2-fluorophenoxy)ethyl)piperidine-4-carboxamide]	–	–
> 30000 nM	> 30000 nM	> 30000 nM	> 30000 nM	O=C(NC(c1ccc(F)cc1)c1ccccn1)C1CCN(Cc2nc3ccccc3o2)CC1 (stereo not drawn) [Compound 60, 1-(benzo[d]oxazol-2-ylmethyl)-N-((4-fluorophenyl)(pyridin-2-yl)methyl)piperidine-4-carboxamide]	–	–
> 30000 nM	10000 to 30000 nM	> 30000 nM	> 30000 nM	O=C(NC(c1ccc(F)cc1)c1ccccn1)C1CCN(Cc2cc3ccccc3o2)CC1 (stereo not drawn) [Compound 59]	–	–
> 30000 nM	100 to 1000 nM	> 30000 nM	100 to 1000 nM	Fc1ccc(F)c(OCCN2CCC(CNC(c3ccc(Cl)cc3)c3ccccn3)CC2)c1 (stereo not drawn) [Compound 89, 1-(4-chlorophenyl)-N-((1-(2-(2,5-difluorophenoxy)ethyl)piperidin-4-yl)methyl)-1-(pyridin-2-yl)methanamine]	–	–
> 30000 nM	> 30000 nM	1000 to 10000 nM	1000 to 10000 nM	COc1ccc(OCCN2CCC(C(=O)NC(c3ccc(Cl)cc3)c3ccccn3)CC2)cc1 (stereo not drawn) [Compound 13, N-((4-chlorophenyl)(pyridin-2-yl)methyl)-1-(2-(4-methoxyphenoxy)ethyl) piperidine-4-carboxamide]	–	–

SMILES	EC50 [1]	IC50 [2, 5]	EC50 [3]	IC50 [4, 5]	IC50 [2]	IC50 [4]
CC(C)N(CC1CCN(CCOc2ccccc2)CC1)C(c1ccc(Cl)cc1)c1ccccn1 (single isomer, unassigned) [Compound 103a, N-((4-chlorophenyl)(pyridin-2-yl)methyl)-N-((1-(2-phenoxyethyl)piperidin-4-yl)methyl)propan-2-amine]	> 30000 nM	–	100 to 1000 nM	–	< 100 nM	100 to 1000 nM
